For assay [1], the system named is Triticum aestivum (TRZAS). The experiment in a line: In vivo analyses Part C: drought stress, appearance vs stressed control plants in categories (TRZAS). More on the design: key: 0: no positive effect; 10: slight positive effect; 20: clear positive effect; 30: strong positive effect. Conditions: appearance vs stressed control plants after recovery phase, efficacy range of 3-4 pots. The protocol:
Seeds of monocotyledonous and dicotyledonous crop plants were sown in sandy loam in plastic or wood-fibre pots, covered with soil or sand and cultivated in a greenhouse under good growth conditions. The test plants were treated at the early leaf stage (BBCH10-BBCH13). To assure uniform water supply before commencement of stress, the potted plants were supplied with water by dam irrigation prior to substance application. The inventive compounds were first formulated as wettable powders (WP) or dissolved in a solvent mixture. The further dilution was effected with water supplemented with 0.2% wetting agent (e.g. agrotin). The finished spray liquor was sprayed onto the green parts of the plant at an equivalent water application rate of 600 I/ha. Substance application was followed immediately by stress treatment of the plants. For this purpose, the wood-fibre pots were transferred in plastic inserts in order to prevent them from subsequently drying out too quickly. Drought stress was induced by gradual drying out under the following conditions: “Day”: 14 hours with illumination at 26-30° C. “Night”: 10 hours without illumination at 18-20° C. The duration of the respective stress phases was guided mainly by the condition of the stressed control plants. It was ended (by re-irrigating and transfer to a greenhouse with good growth conditions) as soon as irreversible damage was observed on the stressed control plants. The end of the stress phase was followed by an about 4-7-day recovery phase, during which the plants were once again kept under good growth conditions in a greenhouse. The duration of the recovery phase was guided mainly by when the trial plants had attained a state which enabled visual scoring of potential effects, and was therefore variable. Once this juncture had been reached, the appearance of the plants treated with test substances was recorded in comparison to the stressed control plants by the following categories: [table] For each substance and dosage, 3-4 pots were treated and evaluated. TRZAS=Triticum aestivum

Assay [2] has as its system Triticum aestivum (TRZAS). The experiment in a line: In vivo analyses Part A: drought stress, visual damage scoring, efficacy EF (TRZAS). Conditions: spray application 25 g/ha, efficacy = reduction in damage intensity. As for the experimental part:
(§1) Seeds of monocotyledonous and dicotyledonous crop plants were sown in sandy loam in wood-fibre pots, covered with soil or sand and cultivated in a greenhouse under good growth conditions. The test plants were treated at the early leaf stage (BBCH10-BBCH13). To assure uniform water supply before commencement of stress, the potted plants were supplied with water by dam irrigation prior to substance application. The inventive compounds, formulated in the form of wettable powders (WP), were sprayed onto the green parts of the plants as an aqueous suspension at an equivalent water application rate of 600 I/ha with addition of 0.2% wetting agent (e.g. agrotin). Substance application was followed immediately by stress treatment of the plants. For this purpose, the pots were transferred in plastic inserts in order to prevent them from subsequently drying out too quickly. Drought stress was induced by gradual drying out under the following conditions: “Day”: 14 hours with illumination at 26° C. “Night”: 10 hours without illumination at 18° C. The duration of the respective stress phases was guided mainly by the condition of the stressed control plants. It was ended (by re-irrigating and transfer to a greenhouse with good growth conditions) as soon as irreversible damage was observed on the stressed control plants. The end of the stress phase was followed by an about 4-7-day recovery phase, during which the plants were once again kept under good growth conditions in a greenhouse. The duration of the recovery phase was guided mainly by when the trial plants had attained a state which enabled visual scoring of potential effects, and was therefore variable. Once this juncture was reached, the intensities of damage were scored visually in comparison to untreated, unstressed controls of the same age. The damage intensity was at first assessed in percent. […]

For another assay, the system named is Brassica napus (BRSNS). The experiment in a line: In vivo analyses Part A: drought stress, visual damage scoring, efficacy EF (BRSNS). Conditions: spray application 250 g/ha, efficacy = reduction in damage intensity. The protocol:
as §1

Turning to `CCC(C=CC(O)(c1ccccc1)C1(C#N)CC1)=CC(=O)O` (racemic) [I.2-201], in assay [1] (dosage 25 g/ha), the “Effect (TRZAS)” value is 10. Take `CCOC(=O)/C=C(\C#CC(O)(C(C)C)C1(C#N)CC1)C1CC1` (stereo not drawn) [I.1-124, Ethyl (2Z)-6-(1-cyanocyclopropyl)-3-cyclopropyl-6-hydroxy-7-methyloct-2-en-4-ynoate]: the “EF [%] (TRZAS)” value in assay [2] is more than 5%. Moreover, the “EF [%] (BRSNS)” value in the assay with Brassica napus (BRSNS) is listed as more than 5%.

As for `CCOC(=O)/C=C(/C)C#CC(O)(C(C)C)C1(C#N)CC1` (stereo not drawn) [I.1-136], the “EF [%] (TRZAS)” value in assay [2] is reported as more than 5%. Besides, the “EF [%] (BRSNS)” value in the assay with Brassica napus (BRSNS) is recorded as more than 5%. As for `CC/C(C#CC(O)(C1CCC1)C1(C#N)CC1)=C/C(=O)OC` (stereo not drawn) [I.1-648], in assay [1] (dosage 250 g/ha), the “Effect (TRZAS)” value is 10-20.

These data come from patent US10322995B2, “Substituted cyano cycloalkyl penta-2,4-dienes, cyano cycloalkyl pent-2-en-4-ynes, cyano heterocyclyl penta-2,4-dienes and cyano heterocyclyl pent-2-en-4-ynes as active substances against abiotic plant stress” (BAYER CROPSCIENCE AKTIENGESELLSCHAFT, priority 2014, dated 2019).
